Experiment [1] relates to genes regulated in the cornea and limbus. Kind of experiment: full transcriptomic regulation in the cornea and limbus. Type of experiment: in vivo, rat. The following applies: cornea and limbus at 3 and 7 days. An excerpt: A full transcriptomic regulation induced in the cornea and limbus at 3 and 7 days after spironolactone systemic injection alone or with TA has been realized.

The test system of experiment [2] is corneal neovascularization induced by limbal deficiency. Kind of experiment: rat model of CN induced by de-epithelialization and limbal resection. Type of experiment: in vivo. The following applies: for corneal edema / corneal neovascularization / corneal re-epithelialization / corneal thickness: rat, limbal deficiency. An excerpt: FIG. 1. Corneal de-epthelialization and limbal resection model treatment schemes.
Corneal neovascularization (CN) is a severe vision-threatening complication of OR.

The subject of another experiment is GR/MR balance. Put plainly: GR and MR expression in the cornea/limbus of rats with limbal deficiency. Type of experiment: in vivo, rat. The source says: FIG. 4. Spironolactone up-regulates GR and the GR/MR balance in favor of GR pathway activation. The corneal de-epithelialization and limbal deficiency model induces a down regulation of GR genes at day 3 and 7, and is restored at day 14 when the cornea is healed. […] Spironolactone normalizes the GR/MR balance, favoring GR pathway activation.
Thus, spironolactone normalizes the GR/MR balance, favoring GR pathway activation.

SMILES strings stand for the structures.

Consider `CC(=O)S[C@@H]1CC2=CC(=O)CC[C@]2(C)[C@H]2CC[C@@]3(C)[C@@H](CC[C@@]34CCC(=O)O4)[C@H]12` [spironolactone, 17-hydroxy-7α-mercapto-3-oxo-17α-pregn-4-ene-21-carboxylic acid γ-lactone acetate], for which the “genes up or down regulated” value in experiment [1] was 75 genes. In addition, in experiment [2] (corneal sections at day 3), the “infiltration of ED1 positive inflammatory cells in corneal lesions” value is “reduced infiltration” and the “infiltration of IBA1-positive macrophages in corneal lesions” value was “reduced infiltration”. In experiment [2], the corneal edema entry is reported as “decrease”, the corneal neovascularization entry is on record as “inhibited”, the corneal re-epithelialization entry is listed as “improved” and the corneal thickness entry was “decrease”. For the same compound, in experiment [2] (spironolactone given with TA injection), the “corneal re-epithelialization (corneal wound) delayed by the TA injection” value was “improved”. In addition, the “GR expression in the cornea” value with GR/MR balance (day 3 and 7) was “up regulates and normalizes”. Further, the MR expression entry with GR/MR balance (rat, in vivo) is listed as “does not influence”.
On to `COC(=O)[C@@H]1CC2=CC(=O)CC[C@]2(C)[C@@]23O[C@@H]2C[C@@]2(C)[C@@H](CC[C@@]24CCC(=O)O4)[C@H]13` [eplerenone, Pregn-4-ene-7,21-dicarboxylic acid, 9,11-epoxy-17-hydroxy-3-oxo-,γ-lactone, methyl ester, (7α, 11α, 17β)], for which, in experiment [2], the corneal edema entry is reported as “decrease”, the corneal neovascularization result is “inhibited”, the corneal re-epithelialization entry is on record as “improved” and the corneal thickness entry is “decrease”.

(Values after US20240366632A1, “METHODS FOR THE TREATMENT OF OCULAR ROSACEA” (INSTITUT NATIONAL DE LA SANTÉ ET DE LA RECHERCHE MÉDICALE, priority 2021, published 2024).)
